From patent US20250163104A1, “MACROCYCLIC IMMUNOMODULATORS” (priority 2021, published 2025)
Where a SMILES comes first, the peptide text is derived from it. Bridges are numbered along the chain shown (N, C = ends). [ ]: non-standard residue; d: D form. The star is where a group is joined. Phe(4-COOH) = N[C@@H](Cc1ccc(C(=O)O)cc1)C(=O)O; Bip = N[C@@H](Cc1ccc(-c2ccccc2)cc1)C(=O)O; Phe(3-Me) = Cc1cccc(C[C@H](N)C(=O)O)c1; Val(3-OH) = CC(C)(O)[C@H](N)C(=O)O; aIle = CC[C@@H](C)[C@H](N)C(=O)O; 4Pal = N[C@@H](Cc1ccncc1)C(=O)O; Cha = N[C@@H](CC1CCCCC1)C(=O)O; dCha = N[C@H](CC1CCCCC1)C(=O)O; Carboxymethyl = O=C(O)C*; Orn = NCCC[C@H](N)C(=O)O; Dab = NCC[C@H](N)C(=O)O; Dap = NC[C@H](N)C(=O)O; Piv = CC(C)(C)C(=O)*; Propargyl = C#CC*

Biological target: T1, human PD-1 / PD-L1-Ig binding on Jurkat cell line over-expressing human PD-1 (Jurkat-PD-1) (Homo sapiens, UniProt Q15116)
T1 construct: expressed in transfected cells; host or cells: Jurkat
Test: Jurkat-PD-1 Cell Binding High-Content Screening Assay (CBA)
Format: cell-based
Settings: Jurkat-PD-1 cells, PE-labeled PD-L1-Ig 20 nM final; read-out: Jurkat HPD1_PDL1 IC50
Outline: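 Cell-bound PE-labeled PD-L1-Ig (20 nM final, 1 h) measured by high-content imaging after fixation and Hoechst 33342 counterstain. Compound was applied first for 2 h at 37° C. to Jurkat cells over-expressing human PD-1 in DMEM with 10% FCS.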

T1 sequence (Q15116 25-288): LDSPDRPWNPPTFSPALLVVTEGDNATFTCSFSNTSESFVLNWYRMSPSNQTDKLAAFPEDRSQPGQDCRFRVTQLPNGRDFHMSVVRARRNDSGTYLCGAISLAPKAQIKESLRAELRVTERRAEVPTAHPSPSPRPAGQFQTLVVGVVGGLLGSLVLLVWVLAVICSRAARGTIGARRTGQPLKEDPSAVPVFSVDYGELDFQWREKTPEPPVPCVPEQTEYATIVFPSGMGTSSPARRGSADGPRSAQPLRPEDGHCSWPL

| IC50 | SMILES |
| --- | --- |
| 19.3 nM | Cc1cccc(C[C@@H]2NC(=O)[C@H](CC(=O)O)NC(=O)[C@H](Cc3ccc(OCC(=O)O)cc3)NC(=O)[C@H](Cc3ccncc3)NC(=O)CSC[C@@H](C(=O)N[C@@H](CCNC(=O)C(C)(C)C)C(N)=O)NC(=O)[C@H]([C@@H](C)O)NC(=O)[C@H](C(C)C)NC(=O)[C@H](CC3CCCCC3)NC(=O)[C@H](CCN)NC(=O)[C@@H](CC(C)C)NC(=O)[C@H](CCN)NC(=O)[C@H](Cc3ccc(OCC(=O)O)cc3)NC(=O)[C@H](Cc3ccc(-c4ccccc4)cc3)NC(=O)[C@H](Cc3ccc(OCC(=O)O)cc3)NC2=O)c1 [Compound 2060] ({CH2CO}-[4Pal]Y(Carboxymethyl)D[Phe(3-Me)]Y(Carboxymethyl)[Bip]Y(Carboxymethyl)[Dab][dL][Dab][Cha]VTC[Dab](Piv)-NH2; thioether N-14) |
| 3.9 nM | C#CCOc1ccc(C[C@@H]2NC(=O)[C@H](Cc3cccc(C)c3)NC(=O)[C@H](CC(=O)O)NC(=O)[C@H](Cc3ccc(C(=O)O)cc3)NC(=O)[C@H]([C@@H](C)O)NC(=O)CSC[C@@H](C(=O)N[C@@H](CCN)C(N)=O)NC(=O)[C@H](CCC(=O)O)NC(=O)[C@H](C(C)C)NC(=O)[C@H](CC3CCCCC3)NC(=O)[C@H](CCN)NC(=O)[C@@H](CC(C)C)NC(=O)[C@H](CCCN)NC(=O)[C@H](Cc3ccc(C(=O)O)cc3)NC(=O)[C@H](Cc3ccc(-c4ccccc4)cc3)NC2=O)cc1 [Compound 1841] ({CH2CO}-T[Phe(4-COOH)]D[Phe(3-Me)]Y(Propargyl)[Bip][Phe(4-COOH)][Orn][dL][Dab][Cha]VEC[Dab]-NH2; thioether N-14) |
| 5.8 nM | CC(C)C[C@H]1NC(=O)[C@H](CCCN)NC(=O)[C@H](CCC(=O)O)NC(=O)[C@H](Cc2ccc(-c3ccccc3)cc2)NC(=O)[C@H](C(C)C)NC(=O)[C@H](Cc2cccc(Cl)c2)NC(=O)[C@H](CC(=O)O)NC(=O)[C@H](Cc2ccc(OCC(=O)O)cc2)NC(=O)[C@H](CN)NC(=O)CSC[C@@H](C(=O)N[C@@H](C)C(N)=O)NC(=O)[C@H]([C@@H](C)O)NC(=O)[C@H](C(C)C)NC(=O)[C@H](CC2CCCCC2)NC(=O)[C@H](CCN)NC1=O [Compound 1495] |
| 18.7 nM | CC(C)C[C@H]1NC(=O)[C@H](CCCN)NC(=O)[C@H](CCC(=O)O)NC(=O)[C@H](Cc2ccc(-c3ccccc3)cc2)NC(=O)[C@H](C(C)C)NC(=O)[C@H](Cc2c[nH]c3ccccc23)NC(=O)[C@H](CC(=O)O)NC(=O)[C@H](Cc2ccc(OCC(=O)O)cc2)NC(=O)[C@H](CN)NC(=O)CSC[C@@H](C(=O)N[C@@H](C)C(N)=O)NC(=O)[C@H]([C@@H](C)O)NC(=O)[C@H](C(C)C)NC(=O)[C@H](CC2CCCCC2)NC(=O)[C@H](Cc2cnc[nH]2)NC1=O [Compound 1518] |
| 43.6 nM | CC(C)C[C@@H]1NC(=O)[C@H](CCCNC(=N)N)NC(=O)[C@@H](CC(C)C)NC(=O)[C@H](CCCN)NC(=O)[C@H](CCCNC(=N)N)NC(=O)[C@H](Cc2ccc(-c3ccccc3)cc2)NC(=O)[C@H](C(C)C)NC(=O)[C@H](Cc2c[nH]c3ccccc23)NC(=O)[C@H](CC(=O)O)NC(=O)[C@H](Cc2ccc(O)cc2)NC(=O)[C@H](CC(N)=O)NC(=O)CSC[C@@H](C(=O)N[C@@H](C)C(N)=O)NC(=O)[C@H]([C@@H](C)O)NC(=O)[C@H](C(C)C)NC1=O [Compound 1012] ({CH2CO}-NYDWV[Bip]R[Orn][dL]RLVTCA-NH2; thioether N-14) |
| 32.1 nM | CC(C)C[C@@H]1NC(=O)[C@H](CCCCN)NC(=O)[C@@H](CC(C)C)NC(=O)[C@H](CCCN)NC(=O)[C@H](Cc2cnc[nH]2)NC(=O)[C@H](Cc2ccc(-c3ccccc3)cc2)NC(=O)[C@H](C(C)C)NC(=O)[C@H](Cc2c[nH]c3ccccc23)NC(=O)[C@H](CC(=O)O)NC(=O)[C@H](Cc2ccc(O)cc2)NC(=O)[C@H](CC(N)=O)NC(=O)CSC[C@@H](C(=O)N[C@@H](C)C(N)=O)NC(=O)[C@H](CO)NC(=O)[C@H](C(C)C)NC1=O [Compound 1134] ({CH2CO}-NYDWV[Bip]H[Orn][dL]KLVSCA-NH2; thioether N-14) |
| 11.7 nM | CC[C@H](C)[C@@H]1NC(=O)[C@H](Cc2ccc(-c3ccccc3)cc2)NC(=O)[C@H](C(C)C)NC(=O)[C@H](Cc2c[nH]c3ccccc23)NC(=O)[C@H](CC(=O)O)NC(=O)[C@H](Cc2ccncc2)NC(=O)[C@H](Cc2ccc(OCC(=O)O)cc2)NC(=O)CSC[C@@H](C(=O)N[C@@H](C)C(N)=O)NC(=O)[C@H]([C@@H](C)O)NC(=O)[C@H](C(C)C)NC(=O)[C@H](CC2CCCCC2)NC(=O)[C@H](CCN)NC(=O)[C@@H](CC(C)C)NC(=O)[C@H](CCCN)NC1=O [Compound 1332] |
| 13 nM | CC(C)C[C@@H]1NC(=O)[C@H](CCCCN)NC(=O)[C@@H](CC(C)C)NC(=O)[C@H](CCCN)NC(=O)[C@H](Cc2cnc[nH]2)NC(=O)[C@H](Cc2ccc(-c3ccccc3)cc2)NC(=O)[C@H](C(C)C)NC(=O)[C@H](Cc2c[nH]c3ccccc23)NC(=O)[C@H](CC(=O)O)NC(=O)[C@H](Cc2ccc(O)cc2)NC(=O)[C@H](CC(N)=O)NC(=O)CSC[C@@H](C(=O)NCC(N)=O)NC(=O)[C@H](CO)NC(=O)[C@H](C(C)C)NC1=O [Compound 1135] ({CH2CO}-NYDWV[Bip]H[Orn][dL]KLVSCG-NH2; thioether N-14) |
| 19.7 nM | CC[C@H](C)[C@@H]1NC(=O)[C@H](Cc2ccc(-c3ccccc3)cc2)NC(=O)[C@H](C(C)C)NC(=O)[C@H](Cc2c[nH]c3ccccc23)NC(=O)[C@H](CC(=O)O)NC(=O)[C@H](Cc2ccc(O)cc2)NC(=O)[C@H](CC(N)=O)NC(=O)CSC[C@@H](C(=O)N[C@@H](C)C(N)=O)NC(=O)[C@H]([C@@H](C)O)NC(=O)[C@H](C(C)C)NC(=O)[C@H](CC(C)C)NC(=O)[C@H](CCCCN)NC(=O)[C@@H](CC(C)C)NC(=O)[C@H](CCCN)NC1=O [Compound 1129] ({CH2CO}-NYDWV[Bip]I[Orn][dL]KLVTCA-NH2; thioether N-14) |
| 24.9 nM | CC[C@@H](C)[C@@H]1NC(=O)[C@H](Cc2ccc(-c3ccccc3)cc2)NC(=O)[C@H](C(C)C)NC(=O)[C@H](Cc2c[nH]c3ccccc23)NC(=O)[C@H](CC(=O)O)NC(=O)[C@H](Cc2ccc(OCC(=O)O)cc2)NC(=O)[C@H](Cc2ccncc2)NC(=O)CSC[C@@H](C(=O)N[C@@H](C)C(N)=O)NC(=O)[C@H]([C@@H](C)O)NC(=O)[C@H](C(C)C)NC(=O)[C@H](CC2CCCCC2)NC(=O)[C@H](CCN)NC(=O)[C@@H](CC2CCCCC2)NC(=O)[C@H](CCCN)NC1=O [Compound 1628] ({CH2CO}-[4Pal]Y(Carboxymethyl)DWV[Bip][aIle][Orn][dCha][Dab][Cha]VTCA-NH2; thioether N-14) |
| 25.2 nM | Cc1cccc(C[C@@H]2NC(=O)[C@H](CC(=O)O)NC(=O)[C@H](Cc3ccc(OCC(=O)O)cc3)NC(=O)[C@H](C(C)(C)O)NC(=O)CSC[C@@H](C(=O)N[C@@H](CCN)C(N)=O)NC(=O)[C@H](CO)NC(=O)[C@H](C(C)(C)O)NC(=O)[C@H](CC3CCCCC3)NC(=O)[C@H](CCN)NC(=O)[C@@H](CC(C)C)NC(=O)[C@H](CCCN)NC(=O)[C@H](Cc3ccc(OCC(=O)O)cc3)NC(=O)[C@H](Cc3ccc(-c4ccccc4)cc3)NC(=O)[C@H](Cc3ccc(OCC(=O)O)cc3)NC2=O)c1 [Compound 2058] ({CH2CO}-[Val(3-OH)]Y(Carboxymethyl)D[Phe(3-Me)]Y(Carboxymethyl)[Bip]Y(Carboxymethyl)[Orn][dL][Dab][Cha][Val(3-OH)]SC[Dab]-NH2; thioether N-14) |
| 17 nM | CC(C)C[C@H]1NC(=O)[C@H](CCCN)NC(=O)[C@H](C(C)C)NC(=O)[C@H](Cc2ccc(-c3ccccc3)cc2)NC(=O)[C@H](C(C)C)NC(=O)[C@H](Cc2c[nH]c3ccccc23)NC(=O)[C@H](CC(=O)O)NC(=O)[C@H](Cc2ccc(OCC(=O)O)cc2)NC(=O)[C@H](CN)NC(=O)CSC[C@@H](C(=O)N[C@@H](C)C(N)=O)NC(=O)[C@H]([C@@H](C)O)NC(=O)[C@H](C(C)C)NC(=O)[C@H](Cc2ccccc2)NC(=O)[C@H](CCN)NC1=O [Compound 1661] ({CH2CO}-[Dap]Y(Carboxymethyl)DWV[Bip]V[Orn][dL][Dab]FVTCA-NH2; thioether N-14) |
| 6.5 nM | Cc1cccc(C[C@@H]2NC(=O)[C@H](CC(=O)O)NC(=O)[C@H](Cc3ccc(OCC(=O)O)cc3)NC(=O)[C@H](CN)NC(=O)CSC[C@@H](C(=O)N[C@@H](CCNC(=O)C(C)(C)C)C(N)=O)NC(=O)[C@H](CCCN)NC(=O)[C@H](C(C)C)NC(=O)[C@H](CC3CCCCC3)NC(=O)[C@H](CCN)NC(=O)[C@@H](CC(C)C)NC(=O)[C@H](CCCN)NC(=O)[C@H](Cc3ccc(O)cc3)NC(=O)[C@H](Cc3ccc(-c4ccccc4)cc3)NC(=O)[C@H](Cc3ccc(O)cc3)NC2=O)c1 [Compound 2042] ({CH2CO}-[Dap]Y(Carboxymethyl)D[Phe(3-Me)]Y[Bip]Y[Orn][dL][Dab][Cha]V[Orn]C[Dab](Piv)-NH2; thioether N-14) |
| 23 nM | CCCC[C@H]1NC(=O)[C@H](CCCN)NC(=O)[C@H]([C@@H](C)CC)NC(=O)[C@H](Cc2ccc(-c3ccccc3)cc2)NC(=O)[C@H](C(C)C)NC(=O)[C@H](Cc2c[nH]c3ccccc23)NC(=O)[C@H](CC(=O)O)NC(=O)[C@H](Cc2ccc(OCC(=O)O)cc2)NC(=O)[C@H](CN)NC(=O)CSC[C@@H](C(=O)N[C@@H](C)C(N)=O)NC(=O)[C@H]([C@@H](C)O)NC(=O)[C@H](C(C)C)NC(=O)[C@H](CC2CCCCC2)NC(=O)[C@H](CCN)NC1=O [Compound 1708] |
| 368 nM | CC(C)C[C@H]1NC(=O)[C@H](CCCN)NC(=O)[C@H](CCC(=O)O)NC(=O)[C@H](Cc2ccc(-c3ccccc3)cc2)NC(=O)[C@H](C(C)C)NC(=O)[C@H](Cc2c[nH]c3ccccc23)NC(=O)[C@H](CC(=O)O)NC(=O)[C@H](Cc2ccc(C(=O)O)cc2)NC(=O)[C@H](Cc2ccc(OCC(=O)O)cc2)NC(=O)CSC[C@@H](C(=O)N[C@@H](C)C(N)=O)NC(=O)[C@H]([C@@H](C)O)NC(=O)[C@H](C(C)C)NC(=O)[C@H](Cc2ccc(O)cc2)NC(=O)[C@H](CCN)NC1=O [Compound 1687] ({CH2CO}-Y(Carboxymethyl)[Phe(4-COOH)]DWV[Bip]E[Orn][dL][Dab]YVTCA-NH2; thioether N-14) |
